# In patent USRE48599E1, “Compositions comprising TLIA-Ig fusion protein for the regulation of T regulatory cells, and methods for their use” (University of Miami, priority 2013, dated 2021):
# Tests used:
# human Tregs = experiment: Human Treg proliferation in humanized mice (NSG-hu); format: in vivo
# Source text: Commercial antibodies for use in flow cytometry, ELISA and in vivo studies were purchased from BD Pharmingen, eBioscience or BioLegend. The Armenian Hamster IgG Isotype control was bought from eBioscience. Armenian hamster hybridomas producing antibodies to mouse TNFRSF25 (4C12, agonistic) were generated as described in Fang, et al. 2008. Essential role of TNF receptor superfamily 25 (TNFRSF25) in the development of allergic lung inflammation. J Exp Med 205:1037-1048. Briefly, 4C12, hTL1A-Ig and rmTL1A-Ig were produced in hollow fiber bioreactors (Fibercell Systems, Frederick, Md.) and purified from serum-free supernatants on a protein G (4C12) or protein A (TL1A-Ig) column (GE Healthcare, UK). For flow cytometry analysis, single cell suspensions were prepared from spleen and lymph nodes. 10^6 cells were pre-blocked with anti-mouse CD16/CD32 and stained with different antibody combinations. Intracellular staining was performed according to standard procedures. Flow cytometric acquisition was performed on a Becton Dickinson Fortessa instrument and […] or FlowJo software was used for analysis.
# Human fetal livers from elective terminations (12-20 weeks of gestational age, Advanced Bioscience Resources) were acquired on a fee for service basis. CD34+ cells were enriched using immunomagnetic beads according to the manufacturer's instructions following density gradient centrifugation of single cell suspensions (CD34+ selection kit; Miltenyi Biotec, Auburn, Calif.). Purity of CD34+ cells isolated was evaluated by flow cytometry and was >85%. Cells were aliquotted and frozen for later HLA typing and transplanted into sub-lethally irradiated neonatal NSG mice. HLA typed CD34+ cells hematopoietic stem cells (HSC) were placed into culture containing 10% human serum, 10 ng/ml each of interleukin (IL)-3, IL-6 and stem cell factor (SCF) in IMDM for 3-5 days. On the day of transplant, cells were harvested from culture dishes and washed in HBSS and CFU and LTC-IC assays were performed to evaluate proliferation and differentiation potential. These assays were performed using standard reagents (StemCell Inc.) and methods as published by the manufacturer. CFU potential was identical to bone marrow progenitor cells following 14 day culture in methylcellulose media supplemented with SCF, GM-CSF, IL-3 and EPO. These assays readily reveal whether gross morphological characteristics and colony numbers of isolated HSC are within expected limits. One-day old NSG mice generated from timed matings were housed with foster-dams for 24 hours post-irradiation (sub-lethal, 1 Gy, whole body irradiation) at which time they are transplanted with 1×10^6−2×10^6 pre-cultured HSC intra-hepatically (i.h.) in a volume of 20 μl using a Hamilton syringe and a 30 gauge ½ inch needle. The pups were immediately returned to their foster-dams and allowed to nurse until weaning at 28 days. Human/mouse chimerism was evaluated in peripheral blood at 15 weeks of age by determining the relative percentages of murine and human CD45+ cells by flow cytometry. Once human CD45+ cells were detected, analysis was extended to include human CD3, CD4, CD8, CD11c and CD19 on all blood collections. Successfully engrafted mice were selected when the fraction of human CD45+ cells in peripheral blood exceeded 60% (NSG-hu).
# To determine the in vivo activity of hTL1A-Ig on human Tregs, humanized mice were generated using human fetal liver CD34^+ cells transferred into NOD, SCID, common γ-chain deficient (NSG) recipient mice, as described above. […] The majority of human CD45+ lymphocytes in the spleen were T cells (˜50%) followed by B cells (˜35%), NK cells (˜2-3%) and dendritic cells (˜1%).
# [1] = Serum half-life of TL1A-Ig in rhesus macaques; format: in vivo, rhesus macaque; details: NHP serum, IV, one-phase exponential decay model
# Protocol: Safety and Activity of TL1A-Ig in Rhesus Macaque The safety and efficacy of TL1A-Ig in non-human primates (NHP) (Indian-origin macaca mulatta) were determined. Following routine screening and 60-day quarantine, rhesus macaque (rm) TL1A-Ig or human (h) TL1A-Ig were administered to the NHP on Day 0 by intravenous (IV) bolus infusion (15 minutes) Animal weights and cage-side observations were performed daily and peripheral blood was collected for analysis of complete blood counts, routine chemistries, CD4 TruCounts, serum isolation and flow cytometry analysis. For flow cytometry analysis, peripheral blood cells were counted on a Countess automated cell counter and aliquots of 1.5×10^6 cells were distributed per sample tube, FMO (Fluorescent Minus One), controls, and compensation tubes. Test samples were stained in D-PBS and 0.5% FBS with 1 μL/mL live dead aqua blue discriminator (Life Technologies). […] Sample tubes were analyzed in the cytometer (Calibur, BD). […] Plates were again washed and wells were resuspended with 150 μL sheath fluid; plates were then read and analyzed on the Luminex® SD Analyzer (Life Technologies, Inc.). The PE signal (Median Fluorescent Intensity, MFI) is proportional to the amount of each cytokine present in the sample; concentrations were calculated from the standard curve. […]
# [2] = tested on: peripheral blood Treg cells; experiment: Peripheral blood Treg expansion, T cell subsets and serum cytokines in rhesus macaques; format: in vivo, rhesus macaque; details: for expansion of the Treg compartment at peak: 1.5 mg/kg, single IV; for expansion of the Treg compartment at peak / time of peak relative fold-expansion of Treg: peripheral blood; for serum levels of IFN-γ and TGF-β: by day 4 after treatment; for serum levels of IL-2, IL-4, IL-5, IL-10 or TNF-α: day 0, day 2, day 4, Luminex
# Protocol: (§1) Safety and Activity of TL1A-Ig in Rhesus Macaque The safety and efficacy of TL1A-Ig in non-human primates (NHP) (Indian-origin macaca mulatta) were determined. Following routine screening and 60-day quarantine, rhesus macaque (rm) TL1A-Ig or human (h) TL1A-Ig were administered to the NHP on Day 0 by intravenous (IV) bolus infusion (15 minutes) Animal weights and cage-side observations were performed daily and peripheral blood was collected for analysis of complete blood counts, routine chemistries, CD4 TruCounts, serum isolation and flow cytometry analysis. For flow cytometry analysis, peripheral blood cells were counted on a Countess automated cell counter and aliquots of 1.5×10^6 cells were distributed per sample tube, FMO (Fluorescent Minus One), controls, and compensation tubes. Test samples were stained in D-PBS and 0.5% FBS with 1 μL/mL live dead aqua blue discriminator (Life Technologies). Test samples and appropriate controls were surface stained for 30 minutes with the indicated cocktails of antibodies (purchased from BD, Becton Dickinson, eBioscience or Life Technologies). For intracellular staining, cells were permeabilized with Fix/perm solution (eBioscience) for 30 minutes at 4° C. Cells were washed and stained intracellularly with anti-FoxP3 antibody for 30 minutes. Following staining, cells were washed and resuspended in 300 μL, FACs wash buffer for acquisition on a BD™ LSR11 flow cytometer (Beckton Dickinson (BD)). Cells were acquired and analysis was done of FlowJo software (Tree Star, Inc., Ashland, Oreg.). For CD4/CD8 Trucounts, CD45, CD3, CD4 and CD8 antibodies were dispensed in TruCount tubes (BD, Cat.No. 340334); 50 uL samples were added and allowed to stain for 15 minutes at room temperature in the dark. Subsequently, samples are lysed with 450 μL FACS lysing solution, and incubated for 15 minutes. Sample tubes were analyzed in the cytometer (Calibur, BD). The events were gated on lymphocytes in side scatter (SSC) dot plot and the CD45-positive population was selected, and then reported: CD3+CD4+ T cells, and CD3+CD8+ T cells. For multiplex analysis of serum cytokines, serum from the indicated days was collected and samples and controls for standard curves were placed in filter plates, and then diluted ¼, and incubated for 2 hour at room temperature with anti-cytokine beads. The content was removed and washed 2 times with the buffer before adding a mixture of biotinylated detection antibodies to each well. After incubating with detection antibody for 1 hour, plates were washed 2 times and incubated for 30 minutes with streptavidin-PE. Plates were again washed and wells were resuspended with 150 μL sheath fluid; plates were then read and analyzed on the Luminex® SD Analyzer (Life Technologies, Inc.). The PE signal (Median Fluorescent Intensity, MFI) is proportional to the amount of each cytokine present in the sample; concentrations were calculated from the standard curve.
# (§2) An inherent limitation of rodent animal models is related to the highly controlled and restricted history of foreign antigen challenge of laboratory animals bred and housed under pathogen-free conditions. Given the antigen-dependent activity of TNFRSF25 agonists, this limitation has important consequences for translational studies of these agents into NHP, wherein the history of foreign antigen exposure is dramatically more diverse. To address this question, rhesus macaque TL1A-Ig (rmTL1A-Ig) was produced and tested in NHP. Treatment-naïve Indian-origin rhesus macaques (nonhuman primates (NHP)) were procured, housed and treated by expert personnel at Advanced Bioscience Laboratories (ABL, Rockville, Md.). Rhesus macaque TL1A-Ig (rmTL1A-Ig) and human (h) TL1A-Ig were manufactured and purified as described above and shipped to ABL personnel at the indicated concentration in blinded tubes diluted in a total volume of 10 ml PBS. […]
# [3] = Safety of TL1A-Ig in rhesus macaques (observations, chemistries, CBC, histopathology); format: in vivo; details: necropsy day 21, 1.5 mg/kg; for histopathology of midbrain, brainstem, liver and pancreas: H&E sections; for histopathology of sigmoid colon / histopathology of terminal ileum: four out of four animals
# Protocol: as §1, §2
Molecule,"total frequency of Treg and proportion of Treg in active proliferation (Ki67+) (human Tregs; day 5, spleen, lymph node and small intestine)",expression of CD69 in CD4+ and CD8+ conventional cells (human Tregs; lymph nodes),"mean Treg value (human Tregs; lymph nodes, day 5, 100 μg i.p.)","mean Treg value (±SEM) (human Tregs; small intestine, day 5, 100 μg i.p.) [%]","mean Treg value (±SEM), FoxP3+ out of total CD4+CD25hiCD127- cells (human Tregs; spleen, day 5, 100 μg i.p.) [%]","overall balance of hCD45+, hCD4+ or hCD8+ cells (human Tregs; spleen, lymph nodes, small intestine, day 5 after injection)","expression of CD69 in CD8+ conventional cells (human Tregs; spleen, p=0.0064)","expression of CD69 in CD4+ conventional cells (human Tregs; spleen, p=0.0363)",half-life [1] [h],expansion of the Treg compartment at peak [2],serum levels of IFN-γ and TGF-β [2],"serum levels of IL-2, IL-4, IL-5, IL-10 or TNF-α [2]",time of peak relative fold-expansion of Treg [2] [days post-treatment],"histopathology of midbrain, brainstem, liver and pancreas [3]",histopathology of sigmoid colon [3],histopathology of terminal ileum [3],Treg expansion ([2]; 0.5 mg/kg dose versus 1.5 mg/kg)
"hTL1A-Ig: extracellular domain of human TL1A fused to hinge-CH2-CH3 domain of human IgG1, SEQ ID NO: 16",significant increase,not in lymph nodes,1.94±0.21,4.54±0.69,1.71±0.24,did not significantly alter,increased expression of CD69,increased expression of CD69,12.5,approximately 3 fold,trend toward decreased levels,no detectable changes,4,no evidence of inflammation or pathology,"mild, multifocal, lymphoplasmacytic infiltrates","mild, diffuse mucosal and submucosal edema",
"rmTL1A-Ig: extracellular domain of rhesus macaque TL1A fused to hinge-CH2-CH3 domain of rhesus macaque IgG1, SEQ ID NO: 10 (protein) METDTLLLWVLLLWVPGSTGDLEIKTCGGGSKPPTCPPCPAPELLGGPSVFLFPPKPKDTLMISRTPEVTCVVVDVSQEDPDVKFNWYVNGAEVHHAQTKPRETQYNSTYRVVSVLTVTHQDWLNGKEYTCKVSNKALPVPIQKTISKDKGQPREPQVYTLPPSREELTKNQVSLTCLVKGFYPSDIVVEWENSGQPENTYKTTPPVLDSDGSYFLYSKLTVDKSRWQQGNVFSCSVMHEALHNHYTQEFKGQEFAPSHQQVYAPLRADGDKPRAHLTVVTQTPTQHFKNQFPALHWEHELGLAFTKNRMNYTNKFLLIPESGDYFIYSQVTFRGMTSECSEIRQAGRPNKPDSITVVITKVTDSYPEPTQLLMGTKSVCEVGSNWFQPIYLGPMFSLQEGDKLMVNVSDISLVDYTKEDKTFFGAFLL",,,,,,,,,,approximately 3 fold,trend toward decreased levels,no detectable changes,4,no evidence of inflammation or pathology,"mild, multifocal, lymphoplasmacytic infiltrates","mild, diffuse mucosal and submucosal edema",non-significantly reduced trend
